Data from PubChem BioAssay AID2305 (GlaxoSmithKline (GSK), 2010).

Tested on: P. falciparum 3D7 growth, pLDH absorbance
Test: P. falciparum 3D7 growth inhibition, dose response, strain 3D7 (AID 2305)

Row | SMILES | IC50
1 | O=C(Nc1ccc(Oc2ccccc2)cc1)N(Cc1ccc(-c2cccc(CN3CCNCC3)c2)cc1)C1CCN(Cc2ccccc2)CC1 | 880 nM
2 | CCn1c(-c2nc(-c3ccc4c(c3)OCO4)cnc2N)nc2cnccc21 | 430 nM
3 | Nc1nccc(-c2ccc3c(-c4cccc(F)c4)cnc(N)c3c2)n1 | 1020 nM
4 | O=c1c2ccccc2[nH]c2nc3ccccc3c(Nc3ccccc3)c12 | 140 nM
5 | CC[C@H](C)CNC(=O)c1cncc(-c2cccc(CN(C)C3CCN(C)CC3)c2)c1 | 780 nM
6 | Cc1cc(CNCCCCCCNCc2ccc(-c3ccccc3)cc2)ccc1O | 900 nM
7 | CCN(CC)CCCC(C)Nc1ccnc2cc(C#N)ccc12 (stereo not given) | 140 nM
8 | Cc1cccc(CN2CCCN(Cc3cccc(C(=O)Nc4ccc(C(C)(C)C)cc4)c3)CC2)c1 | 930 nM
9 | Cc1ccc(C(NC(=O)C2CCCCC2)c2ccc3cccnc3c2O)cc1 (stereo not given) | 950 nM
10 | COc1cccc2c(NN=Cc3ccccc3F)ccnc12 | 940 nM
11 | Cc1ccc(NS(=O)(=O)c2ccc(C(C)N3CCC(N4CCCCC4)CC3)cc2)cc1C (stereo not given) | 760 nM
12 | O=C(Nc1cc(Cl)cc(Cl)c1)Nc1ccnc2ccccc12 | 750 nM
13 | CN1CC=C(c2csc3ccc(NC(=O)Nc4ccc(-c5ccncc5)c5ccccc45)cc23)CC1 | 800 nM
14 | CCN(CC)CCNC(=O)c1ccc(NC(=O)c2cn(-c3ccccc3)nc2-c2cccs2)cc1 | 260 nM
15 | COc1nc(N)ncc1C(=O)NC1CN2CCC1CC2 (stereo not given) | 240 nM
16 | CNCc1ccc(-c2ccc3ccnc(N)c3c2)cc1 | 260 nM
17 | Oc1cccc(-c2nc(-c3ccccc3)c(-c3ccc(Oc4ccc(-c5[nH]c(-c6cccc(O)c6)nc5-c5ccccc5)cc4)cc3)[nH]2)c1 | 860 nM
18 | Cn1nc(-c2ccc(CN[C@@H]3CCc4ccc(O)cc43)cc2)c2cnc(NCCCN3CCCC3)nc21 | 800 nM
19 | CCN(CC)C(=O)C1CCCN(c2cc(C)nc(Nc3ccc(Cl)cc3)n2)C1 (stereo not given) | 720 nM
20 | CCN(CC)CCN1C(=O)c2oc3ccc(F)cc3c(=O)c2C1c1cccc(Cl)c1 (stereo not given) | 530 nM
21 | Cc1cc(N[C@@H](CC(C)C)C(=O)NCc2cccc(F)c2)nc(NCC2CCCCC2)n1 | 830 nM
22 | O=C(NC1CCC(CN2CCC(c3c[nH]c4ccccc34)CC2)CC1)c1cc2ccccc2o1 (stereo not given) | 970 nM
23 | COc1cc2nc(-c3ccccc3)nc(N3CCN(CC(=O)N4CCCC4)CC3)c2cc1OC | 1130 nM
24 | C=C(NC(=O)C1CCCCC1)C(=O)OC | 850 nM
25 | COc1cc([N+](=O)[O-])ccc1NC(=O)c1cc(Cl)ccc1O | 1140 nM

Row | SMILES | IC50
26 | N#Cc1cccc(C(=O)Nc2cccc(-c3ccc(CN4CCC(O)CC4)cc3)c2)c1 | 1300 nM
27 | CC(C)Cc1cn(-c2nc(-c3nc4ccccc4[nH]3)cs2)c2ccncc12 | 90 nM
28 | Oc1cccc(Nc2nc(NCc3ccco3)c3ccccc3n2)c1 | 410 nM
29 | CC(=O)Nc1ccc(S(=O)(=O)Nc2ccc(Nc3nc(C)cc(N4CCCCC4)n3)cc2)cc1 | 780 nM
30 | CN1CCN(c2ncnc3ccc(NC(=O)Nc4ccc(Cl)c(Cl)c4)cc23)CC1 | 260 nM
31 | Cc1[nH]c2ccc(-c3ccccc3)cc2c(=O)c1Br | 160 nM
32 | OC(CNc1ccnc(Nc2ccccc2)n1)c1ccc(C(F)(F)F)cc1 (stereo not given) | 610 nM
33 | CN(C)CCNCc1nc(-c2ccc3c(Nc4ccc(Oc5ccccc5)cc4)ccnc3c2)cs1 | 740 nM
34 | CCOc1ccc(C(Cc2ccccc2)NC(=O)c2cccnc2)cc1OCC (stereo not given) | 770 nM
35 | CCC(CC)n1c(COC)cc2c3c(N)nc(N)nc3ccc21 | 10 nM
36 | COC(=O)c1ccc(CC(C)NCC(O)c2cccc(Cl)c2Cl)cc1 (stereo not given) | 550 nM
37 | CC(C)Oc1ccc(N2CCN(CCCCNC(=O)c3ccc(NC(=O)c4ccc(Cl)cc4)cc3)CC2)c(OC(C)C)c1 | 510 nM
38 | COc1ccc2nccc([C@@H](O)CN3CCC(NCc4ccc5cccc(O)c5n4)CC3)c2n1 | 910 nM
39 | CCN(CC)CCCCNc1cc(-c2[nH]c(-c3c(Cl)cccc3Cl)nc2-c2ccc3cc(OC)ccc3c2)ccn1 | 960 nM
40 | N#Cc1ccc(N2CCN(Cc3ccc(-c4ccc(-c5nc6ccc(C(F)(F)F)cc6[nH]5)s4)cc3)CC2)nc1 | 810 nM
41 | Cc1nc(Nc2ccncc2)cc(-c2ccncc2)n1 | 730 nM
42 | FC(F)(F)c1ccccc1OCc1cc(-c2ccncc2)c(COc2ccccc2C(F)(F)F)cc1C1=CCNCC1 | 890 nM
43 | COc1c(C=NNc2nc(Nc3ccccc3)nc(Nc3ccccc3)n2)ccc(Br)c1O | 720 nM
44 | Cc1cnc(N2CCN(CCCN3CCCC3)CC2)nc1Oc1ccc(-n2ccnc2)cc1 | 900 nM
45 | CCN(CC)CCOc1ccc(C(O)(C#CC(O)(c2ccc(C)cc2)c2ccc(OCCN(CC)CC)cc2)c2ccc(C)cc2)cc1 (stereo not given) | 900 nM
46 | CNCCNCc1cccc(-c2ccc(-c3nc4ccc(C(F)(F)F)cc4[nH]3)s2)c1 | 820 nM
47 | CC(NC(=O)c1ccc(O)c(-c2ccc(Cl)c(Cl)c2)c1)C(=O)NC1CCCCC1 (stereo not given) | 840 nM
48 | CC(=O)Nc1ccc(C(=O)Nc2cccc(-c3cccc(-c4nc5c(C)cccc5[nH]4)c3)c2)cn1 | 60 nM
49 | Cc1cc(C(F)(F)F)cc(-n2ncc(-c3ccc(C(=O)NCc4ccccc4N)cc3)c2N)n1 | 450 nM
50 | CC(=O)N(C)/N=C/[C@H](CCc1ccccc1)NC(=O)[C@H](CC(C)C)NC(=O)c1cccc(OCCN2CCOCC2)c1 | 330 nM

Row | SMILES | IC50
51 | NC(=O)Nc1ccc2cn[nH]c2c1 | 210 nM
52 | CC(=O)N1N=C(c2ccc(F)cc2)Sc2c1nc(C1CCCCC1)n2C(C)=O | 890 nM
53 | CCc1c(CCNCC/C=C/CCNCCc2ccc(OC)c(OC)c2CC)ccc(OC)c1OC | 770 nM
54 | COc1ccc2nccc([C@@H](O)CN3CCC(NC(=O)c4ccc(C5(C(F)(F)F)N=N5)cc4)CC3)c2c1 | 930 nM
55 | O=C(/C=C/c1ccc(Cl)c(Cl)c1)NCCCCCCN1CCN(C(=O)Nc2ccc(OC(F)F)cc2)CC1 | 680 nM
56 | CCNc1cc(C)nc(Nc2ccc(NC(=O)c3cccs3)cc2)n1 | 1020 nM
57 | CCNC(=O)N[C@@H]1CN[C@@H](C#Cc2cc3c(Nc4ccc(OCc5cccc(F)c5)c(Cl)c4)ncnc3s2)C1 | 1010 nM
58 | CCCCNc1c(CC)c(C)c(C#N)c2nc3ccccc3n12 | 380 nM
59 | CCC(NCc1ccc(-c2cncc(C(=O)NCC(C)C)c2)cc1)c1ccccc1 (stereo not given) | 940 nM
60 | O=C(NCc1ccccc1F)c1ccc(N2CCC(NCc3cccc(-n4cccn4)c3)CC2)cc1 | 1730 nM
61 | Cc1c(C(=O)N(C)C)sc2c1c(=O)n(Cc1ccccc1)c(=O)n2CC(=O)Nc1ccccc1F | 660 nM
62 | O=C(Nc1ccon1)c1cc(-c2cccnc2)nc2ccc(Cl)cc12 | 790 nM
63 | Cc1[nH]c2cc(Cl)ccc2c1C1=CCN(CCCCC2(C)C(=O)Nc3ccccc32)CC1 (stereo not given) | 330 nM
64 | CN1CCCN(Cc2ccc(-c3cccc(NC(=O)c4cccc(F)c4)c3)cc2)CC1 | 980 nM
65 | O=C(Oc1ccc(Cl)cc1C(=O)Nc1ccc([N+](=O)[O-])cc1Cl)c1ccccc1 | 910 nM
66 | O=[N+]([O-])c1ccc(Oc2c(Cl)cc(S(=O)(=O)NC3CCC(CN4CCC(c5c[nH]c6ccccc56)CC4)CC3)cc2Cl)c(Cl)c1 (stereo not given) | 760 nM
67 | COc1ccc2nc(-c3cccc(C)n3)nc(Nc3ccncc3)c2c1 | 670 nM
68 | Cc1ccc(C(=O)c2oc3ccc4c(C)cc(=O)oc4c3c2C)cc1 | 1030 nM
69 | Cc1cc(N[C@@H](Cc2ccccc2)C(=O)NCCOc2ccccc2)nc(NCC2CCCCC2)n1 | 850 nM
70 | FC(F)(F)c1cnc(Sc2nnc(-c3ccncc3)o2)c(Cl)c1 | 270 nM
71 | N#Cc1ccc(-c2ccc(C(=O)NCCCCN3CCC(c4nc5ccccc5[nH]4)CC3)cc2)cc1 | 1010 nM
72 | COC(=O)c1ccc2nc(-c3ccc(/C=C/C(=O)NC4CCN(Cc5ccccc5)CC4)cc3)[nH]c2c1 | 710 nM
73 | CCN(CC)CCN(Cc1ccc(-c2ccc(C(F)(F)F)cc2)cc1)C(=O)Cn1c(CCc2cccc(F)c2F)nc(=O)c2ccc(F)cc21 | 360 nM
74 | CCCCCCN1CCCN(Cc2ccc(C(=O)Nc3ccc(CC)cc3)cc2)CC1 | 760 nM
75 | Cc1ccc(F)cc1S(=O)(=O)Nc1ccc(CCN2CCC(N3CCCCC3)CC2)cc1 | 720 nM

Row | SMILES | IC50
76 | CN1CCCC1CCNC(=O)[C@H](CC1CCCCC1)NC(=O)c1ccc(O)c(-c2ccc(Cl)c(Cl)c2)c1 (stereo not given in full) | 740 nM
77 | OC(CNCc1cccc(Oc2ccc(Cl)cc2)c1)c1cc(C(F)(F)F)cc(C(F)(F)F)c1 (stereo not given) | 260 nM
78 | Cc1ccnc2nc(C(=O)Nc3cc(Cl)ccc3N3CCOCC3)nn12 | 1240 nM
79 | COc1cc(CC(C)NCC(O)c2cccc(C(F)(F)F)c2)ccc1OCc1ccccc1 (stereo not given) | 820 nM
80 | COc1ccc(Nc2c3ccc(Cl)cc3nc3ccc(OC)cc23)cc1 | 440 nM
81 | CNC(=O)/C=C/c1cc(NC(=O)Nc2cc(C)nc3c(F)cccc23)ccc1OC | 910 nM
82 | COc1nc(NCC(C)C)nc(Oc2ccc(=O)n(Cc3ccccc3)n2)n1 | 630 nM
83 | CN(C)Cc1cccc(-c2ccc(NC(=O)c3ccc4c(=O)n(C5CCCCC5)cnc4c3)cc2)c1 | 740 nM
84 | O=C(Nc1ccc(C(F)(F)F)cc1)NC1CCN(c2ccnc3cc(Cl)ccc23)C1 (stereo not given) | 140 nM
85 | CC(C)(C)NCC(O)COc1ccc(Cl)cc1C1=NNC(=O)CC1 (stereo not given) | 150 nM
86 | CCc1ccc(Cc2cnc3nc(N)nc(N)c3c2C)cc1CC | 290 nM
87 | CN=C(N)c1ccc(NC(=O)C=Cc2ccc(C(=O)Nc3ccc(C(N)=NC)cc3)cc2)cc1 | 30 nM
88 | CN1CCN(CCCN(Cc2csc(-c3ccc(CNCc4ccccc4)cc3)n2)C(=O)Nc2cc(Cl)cc(Cl)c2)CC1 | 700 nM
89 | Cc1cc(C)c2c(c1)C(=NO)CCN2 | 940 nM
90 | CCCNCc1ccc(-c2ccc(CN(CCOC)C(=O)c3ccc([N+](=O)[O-])c(C)c3)cc2)nc1 | 870 nM
91 | CSc1nnc2n(Cc3ccccc3)c(=O)c3c(n12)-c1ccccc1CC31CCCCC1 | 970 nM
92 | Cn1nc(-c2ccc(Cl)cc2)c2cc(C(=O)NCCN3CCOCC3)sc21 | 720 nM
93 | COCCNCc1ccc(-c2cccc(CNc3ccc(OC)cc3)c2)cc1 | 1040 nM
94 | Cc1cccc(C(=O)N2CCN(Cc3cccc(NC(=O)c4cccs4)c3)CC2)c1 | 220 nM
95 | O=C(/C=C/c1ccc(Cl)c(Cl)c1)NCCCCCN1CCC(NC(=O)Nc2ccc3c(c2)OCO3)CC1 | 710 nM
96 | CC(C)Cn1c(Sc2ccc(C#N)c([N+](=O)[O-])c2)nnc1-c1cccs1 | 1080 nM
97 | CC(=O)Nc1cccc(CN(Cc2ccc(-c3ccc(CNCc4cccnc4)cn3)cc2)C(=O)Cc2cccnc2)c1 | 820 nM
98 | Cc1ccc(F)cc1S(=O)(=O)Nc1cccc(CCN2CCC(N3CCCCC3)CC2)c1 | 1120 nM
99 | OC1(C(F)(F)F)CC(c2ccccc2)=NN1c1nncc(-c2ccccc2)n1 (stereo not given) | 730 nM
100 | CCCCCCN1CCCN(Cc2cccc(C(=O)Nc3ccc(C(C)(C)C)cc3)c2)CC1 | 940 nM
